In PubChem BioAssay (NCI):
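In this assay, cells in 96-well plates receive the compound at five concentrations for 48 hours. Endpoints are linearly interpolated between the surrounding concentrations. GI50 marks 50% less growth. TGI is the concentration that stops growth completely.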

Columns and labels:
Assay in all cases: NCI tumour cell line growth inhibition, 48 h
786-0 renal = tested on: 786-0 renal
A498 renal = tested on: A498 renal
A549 NSCLC = tested on: A549 NSCLC
ACHN renal = tested on: ACHN renal
BT-549 breast = tested on: BT-549 breast
CCRF-CEM leukemia = tested on: CCRF-CEM leukemia
COLO 205 colon = tested on: COLO 205 colon
DU-145 prostate = tested on: DU-145 prostate
EKVX NSCLC = tested on: EKVX NSCLC
HCC-2998 colon = tested on: HCC-2998 colon
HCT-116 colon = tested on: HCT-116 colon
HCT-15 colon = tested on: HCT-15 colon
HL-60(TB) leukemia = tested on: HL-60(TB) leukemia
HOP-62 NSCLC = tested on: HOP-62 NSCLC
HOP-92 NSCLC = tested on: HOP-92 NSCLC
HS 578T breast = tested on: HS 578T breast
HT29 colon = tested on: HT29 colon
IGROV1 ovarian = tested on: IGROV1 ovarian
K-562 leukemia = tested on: K-562 leukemia
KM12 colon = tested on: KM12 colon
LOX IMVI melanoma = tested on: LOX IMVI melanoma
M14 melanoma = tested on: M14 melanoma
MALME-3M melanoma = tested on: MALME-3M melanoma
MCF7 breast = tested on: MCF7 breast
MDA-MB-231 breast = tested on: MDA-MB-231 breast
MDA-MB-435 = tested on: MDA-MB-435
MOLT-4 leukemia = tested on: MOLT-4 leukemia
NCI-H226 lung = tested on: NCI-H226 lung
NCI-H23 lung = tested on: NCI-H23 lung
NCI-H460 lung = tested on: NCI-H460 lung
NCI-H522 lung = tested on: NCI-H522 lung
NCI/ADR-RES ovarian = tested on: NCI/ADR-RES ovarian
OVCAR-3 ovarian = tested on: OVCAR-3 ovarian
OVCAR-4 ovarian = tested on: OVCAR-4 ovarian
OVCAR-5 ovarian = tested on: OVCAR-5 ovarian
OVCAR-8 ovarian = tested on: OVCAR-8 ovarian
PC-3 prostate = tested on: PC-3 prostate
RPMI-8226 leukemia = tested on: RPMI-8226 leukemia
RXF 393 renal = tested on: RXF 393 renal
SF-268 CNS = tested on: SF-268 CNS
SF-295 CNS = tested on: SF-295 CNS
SF-539 CNS = tested on: SF-539 CNS
SK-MEL-2 melanoma = tested on: SK-MEL-2 melanoma
SK-MEL-28 melanoma = tested on: SK-MEL-28 melanoma
SK-MEL-5 melanoma = tested on: SK-MEL-5 melanoma
SK-OV-3 ovarian = tested on: SK-OV-3 ovarian
SN12C renal = tested on: SN12C renal
SNB-19 CNS = tested on: SNB-19 CNS
SNB-75 CNS = tested on: SNB-75 CNS
SR leukemia = tested on: SR leukemia
SW-620 colon = tested on: SW-620 colon
T-47D breast = tested on: T-47D breast
TK-10 renal = tested on: TK-10 renal
U251 CNS = tested on: U251 CNS
UACC-257 melanoma = tested on: UACC-257 melanoma
UACC-62 melanoma = tested on: UACC-62 melanoma
UO-31 renal = tested on: UO-31 renal

Molecule CC(=O)OC[C@]1(C)C=C2C(=O)[C@](C)(O)C3(CC3)C(C)=C2[C@H]1OC(=O)N(C)CCN(C)C(=O)OC(C)(C)C has a GI50 (786-0 renal) of 938 nM, a TGI (786-0 renal) of 2800 nM and a GI50 (A498 renal) of 1300 nM. It also gave a TGI (A498 renal) of 4830 nM, a GI50 (A549 NSCLC) of 1360 nM and a TGI (A549 NSCLC) of 31100 nM. The GI50 (ACHN renal) was 947 nM, the TGI (ACHN renal) was 4200 nM and the GI50 (BT-549 breast) was 898 nM. It also gave a TGI (BT-549 breast) of 3130 nM, a GI50 (CCRF-CEM leukemia) of 1440 nM and a TGI (CCRF-CEM leukemia) greater than 33300 nM. For the same molecule, the GI50 (COLO 205 colon) was 744 nM, the TGI (COLO 205 colon) was 2580 nM and the GI50 (DU-145 prostate) was 850 nM. The TGI (DU-145 prostate) was 20900 nM, the GI50 (EKVX NSCLC) was 1700 nM and the TGI (EKVX NSCLC) was 10700 nM. It also gave a GI50 (HCC-2998 colon) of 1080 nM, a TGI (HCC-2998 colon) of 3740 nM and a GI50 (HCT-116 colon) of 904 nM. The TGI (HCT-116 colon) was greater than 33300 nM, the GI50 (HCT-15 colon) was 889 nM and the TGI (HCT-15 colon) was greater than 33300 nM. For the same molecule, the GI50 (HL-60(TB) leukemia) was 949 nM, the TGI (HL-60(TB) leukemia) was greater than 33300 nM and the GI50 (HOP-62 NSCLC) was 1010 nM. For the same molecule, the TGI (HOP-62 NSCLC) was 3790 nM, the GI50 (HOP-92 NSCLC) was 1080 nM and the TGI (HOP-92 NSCLC) was 3020 nM. It also gave a GI50 (HS 578T breast) of 2170 nM, a TGI (HS 578T breast) of 14900 nM and a GI50 (HT29 colon) of 612 nM. The TGI (HT29 colon) was 3260 nM, the GI50 (IGROV1 ovarian) was 732 nM and the TGI (IGROV1 ovarian) was 3900 nM. The GI50 (K-562 leukemia) was 1400 nM, the TGI (K-562 leukemia) was greater than 33300 nM and the GI50 (KM12 colon) was 1350 nM. For the same molecule, the TGI (KM12 colon) was 30700 nM, the GI50 (LOX IMVI melanoma) was 1040 nM and the TGI (LOX IMVI melanoma) was 7180 nM. For the same molecule, the GI50 (M14 melanoma) was 788 nM, the TGI (M14 melanoma) was 2400 nM and the GI50 (MALME-3M melanoma) was 784 nM. It also gave a TGI (MALME-3M melanoma) of 2270 nM, a GI50 (MCF7 breast) of 652 nM and a TGI (MCF7 breast) greater than 33300 nM. The GI50 (MDA-MB-231 breast) was 1110 nM, the TGI (MDA-MB-231 breast) was 4720 nM and the GI50 (MDA-MB-435) was 809 nM. For the same molecule, the TGI (MDA-MB-435) was 2350 nM, the GI50 (MOLT-4 leukemia) was 1550 nM and the TGI (MOLT-4 leukemia) was greater than 33300 nM. The GI50 (NCI-H226 lung) was 9010 nM, the TGI (NCI-H226 lung) was 25100 nM and the GI50 (NCI-H23 lung) was 651 nM. It also gave a TGI (NCI-H23 lung) of 1910 nM, a GI50 (NCI-H460 lung) of 833 nM and a TGI (NCI-H460 lung) of 4190 nM. The GI50 (NCI-H522 lung) was 668 nM, the TGI (NCI-H522 lung) was 1620 nM and the GI50 (NCI/ADR-RES ovarian) was 812 nM. It also gave a TGI (NCI/ADR-RES ovarian) of 2550 nM, a GI50 (OVCAR-3 ovarian) of 1060 nM and a TGI (OVCAR-3 ovarian) of 4050 nM. For the same molecule, the GI50 (OVCAR-4 ovarian) was 797 nM, the TGI (OVCAR-4 ovarian) was 2720 nM and the GI50 (OVCAR-5 ovarian) was 1090 nM. It also gave a TGI (OVCAR-5 ovarian) of 7180 nM, a GI50 (OVCAR-8 ovarian) of 1050 nM and a TGI (OVCAR-8 ovarian) of 32500 nM. It also gave a GI50 (PC-3 prostate) of 1120 nM, a TGI (PC-3 prostate) of 6510 nM and a GI50 (RPMI-8226 leukemia) of 2270 nM. The TGI (RPMI-8226 leukemia) was 19100 nM, the GI50 (RXF 393 renal) was 581 nM and the TGI (RXF 393 renal) was 1320 nM. The GI50 (SF-268 CNS) was 1170 nM, the TGI (SF-268 CNS) was 8570 nM and the GI50 (SF-295 CNS) was 926 nM. For the same molecule, the TGI (SF-295 CNS) was 4880 nM, the GI50 (SF-539 CNS) was 816 nM and the TGI (SF-539 CNS) was 2240 nM. For the same molecule, the GI50 (SK-MEL-2 melanoma) was 695 nM, the TGI (SK-MEL-2 melanoma) was 1420 nM and the GI50 (SK-MEL-28 melanoma) was 1200 nM. It also gave a TGI (SK-MEL-28 melanoma) of 4690 nM, a GI50 (SK-MEL-5 melanoma) of 630 nM and a TGI (SK-MEL-5 melanoma) of 1400 nM. It also gave a GI50 (SK-OV-3 ovarian) of 1180 nM, a TGI (SK-OV-3 ovarian) of 5330 nM and a GI50 (SN12C renal) of 1220 nM. The TGI (SN12C renal) was 7830 nM, the GI50 (SNB-19 CNS) was 1190 nM and the TGI (SNB-19 CNS) was greater than 33300 nM. The GI50 (SNB-75 CNS) was 1870 nM, the TGI (SNB-75 CNS) was 8110 nM and the GI50 (SR leukemia) was 961 nM. It also gave a TGI (SR leukemia) greater than 33300 nM, a GI50 (SW-620 colon) of 896 nM and a TGI (SW-620 colon) greater than 33300 nM. For the same molecule, the GI50 (T-47D breast) was 858 nM, the TGI (T-47D breast) was 9640 nM and the GI50 (TK-10 renal) was 1370 nM. For the same molecule, the TGI (TK-10 renal) was 6870 nM, the GI50 (U251 CNS) was 1110 nM and the TGI (U251 CNS) was greater than 33300 nM. The GI50 (UACC-257 melanoma) was 1820 nM, the TGI (UACC-257 melanoma) was 13800 nM and the GI50 (UACC-62 melanoma) was 728 nM. For the same molecule, the TGI (UACC-62 melanoma) was 1610 nM, the GI50 (UO-31 renal) was 732 nM and the TGI (UO-31 renal) was 2230 nM.
